According to ChEMBL document CHEMBL1153583, “Organocatalytic synthesis and sterol 14alpha-demethylase binding interactions of enantioriched 3-(1H-1,2,4-triazol-1-yl)butyl benzoates” (Bioorg Med Chem Lett, 2009):

Assay: Binding affinity to Penicillium digitatum CYP51 expressed in Escherichia coli by UV-visible spectrophotometry

Q: Which Kd does the source give for Cc1ccc(C(=O)OCC[C@@H](C)n2cncn2)cc1 here?
A: 338 nM

Q: With C[C@H](CCOC(=O)c1ccccc1)n1cncn1 as the compound, how does the Kd read?
A: 1620 nM

Q: Which Kd does the source give for C[C@@H](CCOC(=O)c1cccc(Cl)c1)n1cncn1 here?
A: 472 nM

Q: For C[C@H](CCOC(=O)c1ccc(Cl)cc1)n1cncn1, which Kd is on record?
A: 682 nM

Q: Which Kd does the source give for C[C@@H](CCOC(=O)c1ccccc1)n1cncn1 here?
A: 1420 nM

Q: For C[C@@H](CCOC(=O)c1ccccc1Cl)n1cncn1, which Kd is on record?
A: 560 nM

Q: For C[C@@H](CCOC(=O)c1ccc(Cl)cc1)n1cncn1, which Kd is on record?
A: 988 nM

Q: Which Kd does the source give for Cc1ccc(C(=O)OCC[C@H](C)n2cncn2)cc1 here?
A: 10500 nM

Q: Which Kd does the source give for C[C@H](CCOC(=O)c1cccc(Cl)c1)n1cncn1 here?
A: 2360 nM

Q: For C[C@@H](CCOC(=O)c1ccc(Cl)cc1Cl)n1cncn1, which Kd is on record?
A: 452 nM

Q: For C[C@H](CCOC(=O)c1ccccc1Cl)n1cncn1, which Kd is on record?
A: 580 nM

Q: For CC(CCOC(=O)c1ccccc1)n1cncn1 (racemic), which Kd is on record?
A: 1180 nM

Q: Which Kd does the source give for CC(CCOC(=O)c1cccc(Cl)c1)n1cncn1 (racemic) here?
A: 743 nM

Q: Which Kd does the source give for CC(CCOC(=O)c1ccc(Cl)cc1Cl)n1cncn1 (racemic) here?
A: 973 nM

Q: For CC(CCOC(=O)c1ccccc1Cl)n1cncn1 (racemic), which Kd is on record?
A: 1120 nM

Q: With CC(CCOC(=O)c1ccc(Cl)cc1)n1cncn1 (racemic) as the compound, how does the Kd read?
A: 1380 nM

Q: With Cc1ccc(C(=O)OCCC(C)n2cncn2)cc1 (racemic) as the compound, how does the Kd read?
A: 1740 nM

Q: For CC(C)(C)C(O)/C(=C/c1ccc(Cl)cc1Cl)n1cncn1 (centres undefined) [DINICONAZOLE], which Kd is on record?
A: 247 nM

Q: Which Kd does the source give for CC(C)(C)C(=O)C(Oc1ccc(Cl)cc1)n1cncn1 (centres undefined) [TRIADIMEFON] here?
A: 936 nM
